How the values were obtained:
HCC1599 = assay: drug sensitivity score (DSS), CellTox Green (DSS (AUC-based score)); higher = stronger drug effect (viability inhibition or cytotoxicity); extreme values may be limits of the assay; conditions: incubation time: 72 h
In short: (§1)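 Using 20 µl of cell suspension per well, breast cancer cell lines were seeded into 384-well plates pre-loaded with compound at 5 concentrations in 10-fold steps across a compound-specific 10,000-fold range. Incubation lasted 72 h, after which CellTox Green fluorescence at 485/520 nm and then CellTiter-Glo luminescence, following 10 min at room temperature, were recorded. Each plate was normalised to 0.1 % DMSO and a positive kill control before the drug sensitivity score was derived from the area under the fitted dose-response curve.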

MDA-MB-468 [1] = assay: as above; conditions: incubation time: 72 h
In short: as §1

HCC1143 = assay: as above; conditions: incubation time: 72 h
In short: as §1

CAL-85-1 [2] = assay: as above; conditions: incubation time: 72 h
In short: as §1

HDQ-P1 [3] = assay: as above; conditions: incubation time: 72 h
In short: as §1

CAL-51 [4] = assay: as above; conditions: incubation time: 72 h
In short: as §1

MDA-MB-436 [5] = assay: as above; conditions: incubation time: 72 h
In short: as §1

MFM-223 [6] = assay: as above; conditions: incubation time: 72 h
In short: as §1

BT-549 [7] = assay: as above; conditions: incubation time: 72 h
In short: as §1

BT-474 [8] = assay: as above; conditions: incubation time: 72 h
In short: as §1

DU-4475 [9] = assay: as above; conditions: incubation time: 72 h
In short: as §1

CAL-120 [10] = assay: as above; conditions: incubation time: 72 h
In short: as §1

MDA-MB-453 [11] = assay: as above; conditions: incubation time: 72 h
In short: as §1

CAL-148 = assay: as above; conditions: incubation time: 72 h
In short: as §1

Hs578T = assay: as above; conditions: incubation time: 72 h
In short: as §1

MCF-10A [12] = assay: as above; conditions: incubation time: 72 h
In short: as §1

MDA-MB-231 [13] = assay: as above; conditions: incubation time: 72 h
In short: as §1

HCC1937 = assay: as above; conditions: incubation time: 72 h
In short: as §1

MDA-MB-453 [14] = conditions: 72 h
In short: (§2)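 Plates of 384 wells holding compound in 5 µl medium received breast cancer cell lines in 20 µl suspension and were incubated 72 h. CellTiter-Blue (2.5 µl, 2 h, 37 °C) was used for viability, read at 560/590 nm, and every plate was normalised to vehicle and a positive kill control and assessed by Z'-factor. The EC50 derives from a percent-inhibition dose-response curve fit censored at the highest concentration, leaving out rows whose drug sensitivity score was zero.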

CAL-85-1 [15] = conditions: 72 h
In short: as §2

MFM-223 [16] = conditions: 72 h
In short: (§3)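 In this assay, breast cancer cell lines spent 72 h with compound at 5 concentrations in 10-fold steps over a compound-specific 10,000-fold range. The first readout was cell death by CellTox Green fluorescence, and the second was viability by CellTiter-Glo luminescence, each normalised per plate to 0.1 % DMSO and a positive kill control. EC50 came from the dose-response curves, censored at the top concentration.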

BT-549 [17] = conditions: 72 h
In short: as §3

HDQ-P1 [18] = conditions: 72 h
In short: as §2

MDA-MB-436 [19] = conditions: 72 h
In short: as §3

BT-474 [20] = conditions: 72 h
In short: as §3

MDA-MB-468 [21] = conditions: 72 h
In short: as §3

CAL-120 [22] = conditions: 72 h
In short: as §3

SK-BR-3 = conditions: 72 h
In short: as §3

MDA-MB-231 [23] = conditions: 72 h
In short: as §3

CAL-51 [24] = conditions: 72 h
In short: as §3

DU-4475 [25] = conditions: 72 h
In short: as §3

MCF-10A [26] = conditions: 72 h
In short: as §3

| Structure (SMILES) | EC50, CellTiter-Blue viability (MDA-MB-453 [14]) [nM] | EC50, CellTiter-Glo (BT-549 [17]) [nM] | EC50, CellTiter-Glo (MDA-MB-436 [19]) [nM] | EC50, CellTiter-Glo (BT-474 [20]) [nM] | EC50, CellTiter-Glo (MDA-MB-468 [21]) [nM] | EC50, CellTiter-Glo (SK-BR-3) [nM] | EC50, CellTiter-Glo (MDA-MB-231 [23]) [nM] | drug sensitivity score (HCC1599) | drug sensitivity score (MDA-MB-468 [1]) | drug sensitivity score (HCC1143) | drug sensitivity score (CAL-85-1 [2]) | drug sensitivity score (HDQ-P1 [3]) | drug sensitivity score (CAL-51 [4]) | drug sensitivity score (MDA-MB-436 [5]) | drug sensitivity score (MFM-223 [6]) | drug sensitivity score (BT-549 [7]) | drug sensitivity score (BT-474 [8]) | drug sensitivity score (DU-4475 [9]) | drug sensitivity score (CAL-120 [10]) | drug sensitivity score (MDA-MB-453 [11]) | drug sensitivity score (CAL-148) | drug sensitivity score (Hs578T) | drug sensitivity score (MCF-10A [12]) | drug sensitivity score (MDA-MB-231 [13]) | drug sensitivity score (HCC1937) | EC50, CellTiter-Blue viability (CAL-85-1 [15]) [nM] | EC50, CellTiter-Glo (MFM-223 [16]) [nM] | EC50, CellTiter-Blue viability (HDQ-P1 [18]) [nM] | EC50, CellTiter-Glo (CAL-120 [22]) [nM] | EC50, CellTiter-Glo (CAL-51 [24]) [nM] | EC50, CellTiter-Glo (DU-4475 [25]) [nM] | EC50, CellTiter-Glo (MCF-10A [26]) [nM] |
| --- | --- | --- | --- | --- | --- | --- | --- | --- | --- | --- | --- | --- | --- | --- | --- | --- | --- | --- | --- | --- | --- | --- | --- | --- | --- | --- | --- | --- | --- | --- | --- | --- |
| CNC(=O)c1cc(Oc2ccc(NC(=O)Nc3ccc(Cl)c(C(F)(F)F)c3)cc2)ccn1 [Sorafenib] | – | – | – | – | – | – | – | 0 | 0 | 0 | 0 | 0 | 0 | 0 | 0 | 0 | 0 | 0 | 0 | 0 | 0 | 0 | 0 | 0 | 0 | 159 | – | – | – | – | – | – |
| c1cc(CN2CCCNCCNCCCNCC2)ccc1CN1CCCNCCNCCCNCC1 [Plerixafor] | – | – | – | – | – | – | – | 0 | 4.79 | 0 | 0 | 0 | 0 | 0 | 0 | 0 | 0 | 0 | 0 | 0 | 0 | 0 | 0 | 0 | 0 | – | – | – | – | – | – | – |
| Cc1ccc(Nc2nccc(N(C)c3ccc4c(C)n(C)nc4c3)n2)cc1S(N)(=O)=O [Pazopanib] | 608 | 4180 | – | – | – | – | – | 0 | 0 | 1.06 | 0.186 | 0 | 0 | 0 | 0 | 0 | 0 | 0 | 0 | 0 | 0 | 0 | 0 | 0 | 0 | – | 645 | > 10000 | – | – | – | – |
| COc1nc(N)nc2c1ncn2[C@@H]1O[C@H](CO)[C@@H](O)[C@@H]1O [Nelarabine] | – | – | > 10000 | > 10000 | – | – | – | 0 | 0 | 0 | 0 | 0 | 0 | 0 | 0 | 0.855 | 0 | 0 | 0 | 0 | 0 | 0 | 0 | 0 | 0 | – | – | – | – | – | – | – |
| CCCCC/C=C/C=C1/C(=O)C=C[C@@H]1C/C=C\CCCC(=O)O [15D-PGJ2] | – | – | – | – | – | – | – | 0 | 0 | 0 | 0 | 0 | 0 | 0 | 0 | 0 | 0 | 0 | 0 | 0 | 0 | 0 | 0 | 0 | 0 | – | – | – | – | – | – | – |
| CC/C(=C(\c1ccc(O)cc1)c1ccc(OCCN(C)C)cc1)c1ccccc1 [4-hydroxytamoxifen] | – | 1900 | 7820 | – | 3660 | 5720 | 3300 | 0 | 21 | 1.54 | 1.62 | 0 | 0 | 0.732 | 0 | 0 | 3.8 | 0 | 1.11 | 1 | 0 | – | 0 | 4.16 | 8.17 | – | 8810 | – | 3010 | – | – | – |

Continued, in another order:

| EC50, CellTiter-Blue viability (MDA-MB-453 [14]) [nM] | EC50, CellTiter-Glo (BT-549 [17]) [nM] | EC50, CellTiter-Glo (MDA-MB-436 [19]) [nM] | EC50, CellTiter-Glo (BT-474 [20]) [nM] | EC50, CellTiter-Glo (MDA-MB-468 [21]) [nM] | EC50, CellTiter-Glo (SK-BR-3) [nM] | EC50, CellTiter-Glo (MDA-MB-231 [23]) [nM] | Structure (SMILES) | drug sensitivity score (HCC1599) | drug sensitivity score (MDA-MB-468 [1]) | drug sensitivity score (HCC1143) | drug sensitivity score (CAL-85-1 [2]) | drug sensitivity score (HDQ-P1 [3]) | drug sensitivity score (CAL-51 [4]) | drug sensitivity score (MDA-MB-436 [5]) | drug sensitivity score (MFM-223 [6]) | drug sensitivity score (BT-549 [7]) | drug sensitivity score (BT-474 [8]) | drug sensitivity score (DU-4475 [9]) | drug sensitivity score (CAL-120 [10]) | drug sensitivity score (MDA-MB-453 [11]) | drug sensitivity score (CAL-148) | drug sensitivity score (Hs578T) | drug sensitivity score (MCF-10A [12]) | drug sensitivity score (MDA-MB-231 [13]) | drug sensitivity score (HCC1937) | EC50, CellTiter-Blue viability (CAL-85-1 [15]) [nM] | EC50, CellTiter-Glo (MFM-223 [16]) [nM] | EC50, CellTiter-Blue viability (HDQ-P1 [18]) [nM] | EC50, CellTiter-Glo (CAL-120 [22]) [nM] | EC50, CellTiter-Glo (CAL-51 [24]) [nM] | EC50, CellTiter-Glo (DU-4475 [25]) [nM] | EC50, CellTiter-Glo (MCF-10A [26]) [nM] |
| --- | --- | --- | --- | --- | --- | --- | --- | --- | --- | --- | --- | --- | --- | --- | --- | --- | --- | --- | --- | --- | --- | --- | --- | --- | --- | --- | --- | --- | --- | --- | --- | --- |
| 6140 | – | – | – | – | – | – | O=C(CCBr)N1CCN(C(=O)CCBr)CC1 [Pipobroman] | 0 | 0 | 1.77 | 0 | 0 | 0 | 0 | 0 | 0 | 0 | 0 | 0 | 0 | 0 | 0 | 0 | 0 | 0 | – | – | – | – | – | – | – |
| – | – | 8470 | 456 | – | > 10000 | 737 | O=C(NC[C@H](O)CO)c1ccncc1Nc1ccc(I)cc1F [Pimasertib] | 0 | 0 | 0 | 6.45 | 0 | 0 | 0 | 0 | 0 | 2.1 | 9.13 | 2.8 | 0 | 0 | 0 | 0 | 12.2 | 0 | – | 1950 | – | 356 | 46.2 | 21.8 | 12.9 |
